Source: patent US9546200B2, “Peptide for protection of allergic respiratory disorders” (Board of Supervisors of Louisiana State University and …, priority 2011, dated 2017)
Residues, ends and D or L forms follow the SMILES beside them.

System: foals
Parameters: species or system horse
Details: in vivo
Procedure: Two days before the injection of the peptide-1, a foal along with the mare was brought from the pasture to a bedded stall of the LSU School of Veterinary Medicine. They were fed hay and concentrated horse chow (Horse Chow #200^R, Purina Mills, St. Louis, Mo.); water was provided ad libitum. A physical examination was conducted on the day of injection. The foal's body temperature, heart rate, respiratory rate, body weight, body score, sex, breed, age and general physical conditions were recorded. After the physical examination, 5 ml of blood was drawn from jugular vein to determine pre-immune antibody titer (control value) and CBC.
Since the peptide-1 has not been tried in any animals, the first foal was used to test the injection method and dosage. A low dose of 0.1 mg/kg body weight of conjugated peptide-1 with KLH was used, but without an adjuvant to minimize any adverse reactions due to either a high dose of peptide-1 or adjuvant. This protocol allowed a determination of any reaction due to the conjugated peptide-1 alone. A subcutaneous route of administration was chosen to produce a consistent “slow and steady” absorption. The first injection was given on the left side of the neck after cleaning with alcohol. […] After the injection, 5 ml blood was collected weekly. A booster injection with the same dose and route was given on the right side of the neck on the 15th day following the initial injection. Weekly blood collections continued for 42 days. […] For the remaining foals, a new protocol was used in that an adjuvant was added to the injection and the booster injection was given on the 28th day after the initial injection.
Immediately after injection (either the first injection or the booster), a small swelling (size 1″×0.5″) at the site of injection was observed. The foal was observed continuously for the first hour and later every hour for eight hours. The foal evinced pain upon touch at the injection site, but it was eating, nursing, and drinking within 15 minutes after injection. […] No sweating, fever, cough, seizure or difficulty in breathing was observed.
The foal remained under close observation for another two days, when the swelling began to subside. On the third day, foal and mare were allowed to go to the pasture. A similar swelling occurred at the booster injection time also. Therefore, in the animal protocol, foals would be kept in the bedded stall with the mare for a week after injection to observe the foals closely. In addition, the protocol demanded that if the swollen area is more than 2.5″ in diameter and more than 0.5″ in thickness, hot water packs are to be applied to relieve pain and swelling. Veterinary medical care is to be consulted if the condition worsens. After one week in the stall, the Foal #2 was let out to pasture and continued to do well for the remainder of the experimental period of 57 days.
The basic protocol is as described for Foal #2. However, before injecting the peptide, extra care was taken in cleaning the injection site by scrubbing the site with Septisol antiseptic foam (Septisol^R, Steris Corp., Ohio) and alcohol. […] There was a small swelling in this foal which lasted only for 24 hours, probably due to the adjuvant. The adjuvant has an oily consistency, which would facilitate slow absorption of the injected solution.

CC[C@H](C)[C@H](NC(=O)[C@H](CCCCN)NC(=O)[C@H](CC(=O)O)NC(=O)[C@H](CCSC)NC(=O)[C@H](CC(C)C)NC(=O)[C@H](CCCCN)NC(=O)[C@H](CC(C)C)NC(=O)[C@@H](NC(=O)[C@H](CO)NC(=O)[C@H](CC(=O)O)NC(=O)[C@H](CCCCN)NC(=O)[C@@H](NC(=O)[C@H](CC(N)=O)NC(=O)[C@@H](N)CCCCN)[C@@H](C)O)[C@@H](C)CC)C(=O)N[C@@H](C)C(=O)N[C@@H](CCCCN)C(=O)N[C@@H](CO)C(=O)N1CCC[C@H]1C(=O)N[C@@H](CC(C)C)C(=O)N[C@@H](CS)C(=O)N[C@@H](C)C(=O)O [Peptide-1] (H-KNTKDSILKLMDKIAKSPLCA-OH)
area of swelling at the injection site: 2.5″×2″ | size of swelling at the site of injection: 1″×0.5″ | thickness of swelling at the injection site: 0.5 ″ | duration of swelling (sc, 0.1 mg/kg): 24 h | other adverse reaction (sc, 0.1 mg/kg): no other adverse reaction
